One series deals with hepatotoxicity. As to conditions: effect of the 2-fluoro substituent; cited from earlier work.
The conditions of series [1]: anticonvulsant; cited from earlier work.
Series [2] has as its system animals (seizure induced by pentylenetetrazole). Put plainly: PTZ convulsion test (anticonvulsant activity). As to conditions: intraperitoneal, sodium salt, PTZ 65 mg/kg s.c. after 15 minutes. It counts as in vivo. As to the method:
The anti-convulsive activity of the compounds of the invention was determined by the PTZ convulsion test (E. Swinyard et al., 1969, "Laboratory Evaluation of Antiepileptic Drugs, Review of Laboratory Methods," Epilepsia 10, 107-119; E. Swinyard, J. Woodhead, in Antiepileptic Drugs, 2nd ed., D. Woodbury, J. Penry, C. Pippenger, eds., Raven Press, New York, 1982, 111-126). Briefly, animals were dosed intraperitoneally with the sodium salt of the compound to be tested, and then challenged after 15 minutes with a subcutaneous injection of pentylenetetrazole (65 mg/kg). The percentage of animals that were protected from seizure (defined as at least one episode of continuous seizure activity lasting at least five seconds) is reported in Table 1 as "Anticonvulsant Activity %".

The test system of the next series is fetuses. The series is described as follows: Teratogenic potential: exencephaly in fetuses of treated pregnant animals. As to conditions: sodium salt, injected day 8 of gestation, fetuses examined day 18. The class given is in vivo. As to the method:
The teratogenic potential of the compounds was determined by injecting pregnant animals on day 8 of gestation with the sodium salt of the compound to be tested, and by examining the fetuses on day 18 of gestation (H. Nau, 1985, Toxicol. Appl. Pharmacol., 80, 243-250; H. Nau, W. Loscher, 1986, Fund. Appl. Toxicol., 6, 669).

A further series concerns animals. The class given is in vivo. As to conditions: dose 1.5 mmol/kg, sodium salt, after 15 minutes. As to the method: The sedative activity of the compounds was determined by the "Rotorod" test (Dunham, Miya, 1957, J. Am. Pharm. Assoc., 46, 208-209). Animals were dosed with the sodium salt of the compound to be tested, and after 15 minutes they were placed on the ROTOROD apparatus (Rotorod, Ugobasile, Italy). The percentage of animals that fell from the rod is reported as "Sedative Activity %" in Table 1.

For series [3], the system named is newborns of women taking VPA. To be noted: newborns of women taking VPA during pregnancy; cited from earlier work.
The next series has as its system mice. As to conditions: cited from earlier work.
For series [4] the following is noted: in vivo; cited from earlier work.
The next series has as its system children on polytherapy. To be noted: young children on polytherapy; cited from earlier work.

As for `C=CCC(F)(CCC)C(=O)O` (centres unmarked) [2-fluoro-2-propyl-4-pentenoic acid], the “hepatotoxicity relative to 2-propyl-4-pentenoic acid” value in the series on hepatotoxicity is reported as “reduce hepatotoxicity relative to 2-propyl-4-pentenoic acid”.

With `CCCC(CCC(F)(F)F)C(=O)O` (centres unmarked) [5,5,5-trifluoro-2-n-propyl pentanoic acid], the “potency relative to VPA” value in series [1] is given as “less potent than VPA”.

Regarding `CC#CCC(F)(CCCCCCC)C(=O)O` (centres unmarked) [Example 7, 2-fluoro-2-n-heptyl-4-hexynoic acid], the “Anticonvulsant Activity % (percentage of animals protected from seizure)” value in [2] (dose 0.5 mmol/kg) was found to be 60%. In the series with fetuses (dose 1.0 mmol/kg), the “Teratogenic Activity % (percent of fetuses exhibiting exencephaly)” value is listed as 0%.

Take `CC#CCC(F)(CCCCC)C(=O)O` (centres unmarked) [Example 5, 2-fluoro-2-n-pentyl-4-hexynoic acid]: the “Anticonvulsant Activity % (percentage of animals protected from seizure)” value in series [2] (dose 1.5 mmol/kg) is on record as 80%. For the same molecule, the “Teratogenic Activity % (percent of fetuses exhibiting exencephaly)” value with fetuses (dose 1.5 mmol/kg) was found to be 1%.

As to `CC#CCC(F)(CCC)C(=O)O` (centres unmarked) [Example 3, 2-fluoro-2-n-propyl-4-hexynoic acid], the “Anticonvulsant Activity % (percentage of animals protected from seizure)” value in series [2] (dose 1.5 mmol/kg) is reported as 20%. Besides, the “Teratogenic Activity % (percent of fetuses exhibiting exencephaly)” value with fetuses (dose 3.0 mmol/kg) worked out at 2%.

For the molecule `CCCC(F)(CCC)C(=O)O` [2-fluoro-2-propylpentanoic acid], the “potency relative to VPA” value in [1] is “less potent than VPA”.

On to `CCCC(CCC)C(=O)O` [VPA, 2-propylpentanoic acid], for which the “Anticonvulsant Activity % (percentage of animals protected from seizure)” value in [2] (dose 1.0 mmol/kg) worked out at 60%. Besides, in the series on animals, the “Sedative Activity % (percentage of animals that fell from the rod)” value is recorded as 40%. In the series with fetuses (dose 3.0 mmol/kg), the “Teratogenic Activity % (percent of fetuses exhibiting exencephaly)” value is 50%. The “risk of spina bifida” value in series [3] was 1-2%. In addition, the neural tube defects result in the series on mice is recorded as “induce neural tube defects in mice”. Besides, in series [4], the duration of action entry is reported as “short duration of action”; the serious side effects entry was “sedation, potentially fatal hepatotoxicity, and teratogenicity”. For the same molecule, the “VPA-induced hepatic fatality rate” value with children on polytherapy is listed as 1/500.

On to `CC#CCC(F)(CCCCCCCC)C(=O)O` (centres unmarked) [Example 8, 2-fluoro-2-n-octyl-4-hexynoic acid], for which the “Anticonvulsant Activity % (percentage of animals protected from seizure)” value in series [2] (dose 0.25 mmol/kg) came out at 40%. The “Teratogenic Activity % (percent of fetuses exhibiting exencephaly)” value in the series with fetuses (dose 0.5 mmol/kg) came to 0%.

As for `O=C(O)C(CCC(F)(F)F)CCC(F)(F)F` [5,5,5-trifluoro-2-(3,3,3-trifluoropropyl) pentanoic acid], the “potency relative to VPA” value in series [1] is recorded as “less potent than VPA”.

(Values after patent publication US6184401A, “Alpha-fluoro alkynoic acids with anticonvulsant activity” (priority 1999, dated 2001).)
